Target: T1, sGC α1/β1 heterodimer (Homo sapiens, UniProt Q02108+Q02153)
T1 construct: expressed in transfected cells
T1 sequence (Q02108 1-690 partner): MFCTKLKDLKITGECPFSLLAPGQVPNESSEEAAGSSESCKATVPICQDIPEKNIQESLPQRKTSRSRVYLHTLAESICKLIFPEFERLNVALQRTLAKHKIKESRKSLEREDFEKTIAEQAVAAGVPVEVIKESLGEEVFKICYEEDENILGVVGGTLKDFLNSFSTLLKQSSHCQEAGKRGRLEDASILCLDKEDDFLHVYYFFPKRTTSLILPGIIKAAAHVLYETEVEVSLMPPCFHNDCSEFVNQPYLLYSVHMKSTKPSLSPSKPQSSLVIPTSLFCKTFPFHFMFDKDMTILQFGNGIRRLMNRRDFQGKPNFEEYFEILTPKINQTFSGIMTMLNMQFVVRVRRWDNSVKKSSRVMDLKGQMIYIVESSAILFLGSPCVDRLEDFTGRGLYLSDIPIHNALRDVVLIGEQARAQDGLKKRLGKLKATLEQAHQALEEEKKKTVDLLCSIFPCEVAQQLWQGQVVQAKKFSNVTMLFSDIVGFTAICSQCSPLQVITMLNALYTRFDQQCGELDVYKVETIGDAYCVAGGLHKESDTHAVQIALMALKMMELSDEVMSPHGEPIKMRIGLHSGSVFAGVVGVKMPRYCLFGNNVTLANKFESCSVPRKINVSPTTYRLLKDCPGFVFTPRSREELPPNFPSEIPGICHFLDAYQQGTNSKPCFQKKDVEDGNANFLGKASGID
T1 sequence (Q02153 1-619): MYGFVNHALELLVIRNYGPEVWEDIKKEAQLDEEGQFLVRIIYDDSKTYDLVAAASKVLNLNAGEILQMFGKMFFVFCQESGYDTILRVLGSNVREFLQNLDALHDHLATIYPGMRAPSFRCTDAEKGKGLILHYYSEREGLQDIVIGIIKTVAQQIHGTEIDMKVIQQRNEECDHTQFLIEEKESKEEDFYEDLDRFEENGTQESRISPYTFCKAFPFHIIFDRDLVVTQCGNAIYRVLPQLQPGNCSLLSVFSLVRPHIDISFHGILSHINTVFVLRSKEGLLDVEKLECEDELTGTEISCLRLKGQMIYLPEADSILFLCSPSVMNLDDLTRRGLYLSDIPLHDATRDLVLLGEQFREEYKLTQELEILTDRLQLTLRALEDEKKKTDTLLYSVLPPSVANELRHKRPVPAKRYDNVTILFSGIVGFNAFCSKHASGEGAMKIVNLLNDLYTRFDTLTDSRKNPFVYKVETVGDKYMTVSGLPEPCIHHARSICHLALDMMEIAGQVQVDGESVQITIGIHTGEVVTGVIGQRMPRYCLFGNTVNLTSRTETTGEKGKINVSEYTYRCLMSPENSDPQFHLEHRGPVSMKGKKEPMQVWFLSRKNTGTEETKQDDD
Experiment: Cell-Based sGC Functional Assay (CASA Assay)
Details: CHO-K1/sGC cells, with ODQ incubation (10 μM), 1 hr at 37° C., intracellular cGMP by HTRF; for EC50: read-out: IP (nM) (inflection point); for fold induction: read-out: maximum fold induction over DMSO control
Procedure: Cell-Based sGC Functional Assay (CASA Assay)
Rationale: sGC is a heme-containing enzyme that converts GTP (guanosine 5′-triphosphate) to secondary messenger cGMP. Increases in cGMP levels affect several physiological processes including vasorelaxation through multiple downstream pathways. […] Heme-independent activators (HIAs) preferentially activate sGC containing a ferric heme group, which can be generated upon incubation with 1H-(1,2,4)oxadiazolo(4,3-a) quinoxalin-1-one (ODQ). To determine the effect of sGC activators on enzyme activity, the CASA assay was developed to monitor the generation of cGMP in a cell line that stably expresses the heterodimeric sGC protein.
Methods: A CHO-K1 cell line stably expressing the sGC αl/β1 heterodimer was generated using a standard transfection protocol. CHO-K1 cells were transfected with plasmids pIREShyghsGCα1 and pIRESneo-hsGCβ1 simultaneously using FUGENE reagent. Clones that stably express both subunits were selected with hygromycin and neomycin for ˜2 weeks. Clone #7 was chosen for the assay and was designated CHO-K1/sGC. CHO-K1/sGC cells were maintained in F-K12 medium containing 10% heat-inactivated Fetal Bovine Serum (FBS), 100 μg/mL penicillin/streptomycin, 0.5 mg/mL hygromycin and 0.25 mg/mL G418. On the day of the assay, cells were harvested in EBSS (Earle's balanced salt solution) Assay Buffer (EAB) containing 5 mM MgCl2, 10 mM HEPES (4-(2-hydroxyethyl)piperazine-1-ethanesulfonic acid) and 0.05% BSA (bovine serum albumin) and cell density was adjusted to 2×10^6/mL with EAB. IBMX (3-isobutyl-1-methylxanthin, 0.5 mM) was added to inhibit degradation of cGMP. Compounds were diluted from DMSO stock solutions and added to the assay at a final DMSO concentration of 1%. Cells were incubated with compounds in the presence and absence of 10 μM of 1H-(1,2,4)oxadiazolo(4,3-a) quinoxalin-1-one (ODQ) for 1 hr at 37° C. At the end of the incubation period, the reaction was terminated and the cells were lysed. The level of intracellular cGMP was determined using an HTRF-based assay kit (CisBio, 62GM2PEC), which detects the displacement of a fluorescence labeled cGMP from its specific antibody. The amount of cGMP was plotted against compound concentration in PRISM software and the inflection point (IP) and maximum fold induction over DMSO control were derived from the plot.

Structure (SMILES) | EC50 [nM] | fold induction
Cc1cc(C2CCN(CC(F)(F)F)CC2)ccc1COc1ccccc1-c1cccc(-n2ncc(C(=O)O)c2C(F)(F)F)n1 [Example 3, 1-(6-(2-((2-Methyl-4-(1-(2,2,2-trifluoroethyl)piperidin-4-yl)benzyl)oxy)phenyl)pyridin-2-yl)-5-(trifluoromethyl)-1H-pyrazole-4-carboxylic acid] | 10.4 | 127
O=C(O)c1cnn(-c2cccc(-c3cccc(Cl)c3OCc3ccc(C4CCN(C(=O)C5CC5)CC4)cc3)n2)c1C(F)(F)F [Example 84, 1-(6-(3-chloro-2-((4-(1-(cyclopropylcarbonyl)piperidin-4-yl)benzyl)oxy)phenyl)pyridin-2-yl)-5-(trifluoromethyl)-1H-pyrazole-4-carboxylic acid] | 5.4 | 50
O=C(O)c1cnn(-c2cccc(-c3cc(F)cc(Cl)c3OCc3ccc(C4CCN(CC(F)(F)F)CC4)cc3)n2)c1C(F)(F)F [Example 2, 1-(6-(3-Chloro-5-fluoro-2-((4-(1-(2,2,2-trifluoroethyl)piperidin-4-yl)benzyl)oxy)phenyl)pyridin-2-yl)-5-(trifluoromethyl)-1H-pyrazole-4-carboxylic acid] | 2.4 | 189
COC(=O)N1CCC(c2ccc(COc3c(F)cccc3-c3cccc(-n4ncc(C(=O)O)c4C(F)(F)F)n3)cc2)CC1 [Example 5, 1-{6-[3-fluoro-2-({4-[1-(methoxycarbonyl)piperidin-4 yl]benzyl}oxy)phenyl]pyridin-2-yl}-5-(trifluoromethyl)-1H-pyrazole-4-carboxylic acid] | 26.9 | 244
COC(=O)N1CCC(c2ccc(COc3c(-c4cccc(-n5ncc(C(=O)O)c5C(F)(F)F)n4)cccc3C(F)(F)F)cc2)CC1 [Example 77, 1-(6-(2-((4-(1-(methoxycarbonyl)piperidin-4-yl)benzyl)oxy)-3-(trifluoromethyl)phenyl)pyridin-2-yl)-5-(trifluoromethyl)-1H-pyrazole-4-carboxylic acid] | 1.5 | 151
CCC(=O)N1CCC(c2ccc(COc3c(-c4cccc(-n5ncc(C(=O)O)c5C(F)(F)F)n4)cccc3C(F)(F)F)cc2)CC1 [Example 76, 1-(6-(2-((4-(1-propionylpiperidin-4-yl)benzyl)oxy)-3-(trifluoromethyl)phenyl)pyridin-2-yl)-5-(trifluoromethyl)-1H-pyrazole-4-carboxylic acid] | < 0.5 | 216
O=C(O)c1cnn(-c2cccc(-c3cccc(C(F)(F)F)c3OCc3ccc(C4CCN(C(=O)C5CC5)CC4)cc3)n2)c1C(F)(F)F [Example 81, 1-(6-(2-((4-(1-(cyclopropylcarbonyl)piperidin-4-yl)benzyl)oxy)-3-(trifluoromethyl)phenyl)pyridin-2-yl)-5-(trifluoromethyl)-1H-pyrazole-4-carboxylic acid] | 2.6 | 170
O=C(O)c1cnn(-c2cccc(-c3ccccc3OCc3ccc(C4CCN(CC(F)(F)F)CC4)cc3)n2)c1C(F)(F)F [Example 1, 1-[6-[2-[[4-[1-(2,2,2-Trifluoroethyl)-4-piperidinyl]phenyl]methoxy]phenyl]-2-pyridinyl]-5-(trifluoromethyl)-1H-pyrazole-4-carboxylic acid] | 51.5 | 281

Reference: patent US8507512B2, “Soluble guanylate cyclase activators” (Merck Sharp & Dohme Corp., priority 2009, dated 2013)
